Measurements reported in the NIST ThermoML archive (doi:10.1021/je020189p).
“And” between values parts separate entries of the source, which are not always exact repeats. Identical values can stand only once.

[Br][Gd]([Br])[Br] [gadolinium bromide (GdBr3)]
Conditions	vapor or sublimation pressure
895 K, Crystal	3.31e-05 kPa
910 K, Crystal	4.17e-05 kPa
914 K, Crystal	6.31e-05 kPa
917 K, Crystal	7.76e-05 kPa
919 K, Crystal	8.91e-05 kPa
920 K, Crystal	7.76e-05 kPa
926 K, Crystal	0.000112 kPa
928 K, Crystal	7.76e-05 kPa
929 K, Crystal	0.000105 kPa
932 K, Crystal	0.000138 kPa
934 K, Crystal	0.000135 kPa
937 K, Crystal	0.000166 kPa
941 K, Crystal	0.00017 kPa
945 K, Crystal	0.000155 kPa and 0.000204 kPa
947 K, Crystal	0.000234 kPa
951 K, Crystal	0.000251 kPa and 0.000141 kPa
953 K, Crystal	0.000324 kPa
956 K, Crystal	0.000282 kPa and 0.000302 kPa
957 K, Crystal	0.000331 kPa and 0.000224 kPa
959 K, Crystal	0.000324 kPa
962 K, Crystal	0.000447 kPa
964 K, Crystal	0.000398 kPa
965 K, Crystal	0.000389 kPa
967 K, Crystal	0.000468 kPa
968 K, Crystal	0.000324 kPa and 0.000282 kPa
969 K, Crystal	0.000468 kPa and 0.000575 kPa
971 K, Crystal	0.00049 kPa
973 K, Crystal	0.00055 kPa
974 K, Crystal	0.00055 kPa
977 K, Crystal	0.000759 kPa
979 K, Crystal	0.000468 kPa and 0.000676 kPa and 0.000427 kPa
980 K, Crystal	0.000759 kPa
981 K, Crystal	0.000708 kPa
983 K, Crystal	0.000794 kPa
984 K, Crystal	0.000562 kPa
986 K, Crystal	0.000891 kPa
987 K, Crystal	0.001 kPa
988 K, Crystal	0.000933 kPa
989 K, Crystal	0.000708 kPa
990 K, Crystal	0.00107 kPa and 0.000617 kPa and 0.00115 kPa
993 K, Crystal	0.0011 kPa
994 K, Crystal	0.0011 kPa
996 K, Crystal	0.00123 kPa
997 K, Crystal	0.00145 kPa
999 K, Crystal	0.00102 kPa and 0.00155 kPa
1000 K, Crystal	0.00138 kPa
1001 K, Crystal	0.00155 kPa
1002 K, Crystal	0.000912 kPa
1003 K, Crystal	0.00148 kPa
1004 K, Crystal	0.00158 kPa
1006 K, Crystal	0.00162 kPa
1008 K, Crystal	0.00141 kPa and 0.002 kPa
1011 K, Crystal	0.00219 kPa and 0.002 kPa
1012 K, Crystal	0.00195 kPa
1014 K, Crystal	0.00245 kPa and 0.00219 kPa and 0.00135 kPa
1015 K, Crystal	0.0017 kPa and 0.00219 kPa
1018 K, Crystal	0.00191 kPa and 0.00275 kPa
1019 K, Crystal	0.00251 kPa
1020 K, Crystal	0.00288 kPa
1023 K, Crystal	0.00219 kPa and 0.00275 kPa
1025 K, Crystal	0.00302 kPa
1026 K, Crystal	0.002 kPa and 0.00347 kPa
1029 K, Crystal	0.00372 kPa and 0.00275 kPa
1030 K, Crystal	0.00363 kPa
1032 K, Crystal	0.00295 kPa and 0.00372 kPa
1034 K, Crystal	0.00398 kPa
1035 K, Crystal	0.00339 kPa
1036 K, Crystal	0.00468 kPa
1041 K, Crystal	0.00513 kPa and 0.00316 kPa
1043 K, Crystal	0.00513 kPa
1045 K, Crystal	0.00575 kPa
1049 K, Crystal	0.00661 kPa and 0.00417 kPa
1051 K, Crystal	0.00661 kPa
1057 K, Crystal	0.00776 kPa and 0.00832 kPa and 0.00525 kPa
1060 K, Liquid	0.00646 kPa
1067 K, Liquid	0.00933 kPa
1073 K, Liquid	0.00851 kPa
1074 K, Liquid	0.00741 kPa
1078 K, Liquid	0.012 kPa
1085 K, Liquid	0.0117 kPa
1087 K, Liquid	0.0145 kPa
1091 K, Liquid	0.0115 kPa
1096 K, Liquid	0.0158 kPa
1098 K, Liquid	0.0191 kPa
1099 K, Liquid	0.0138 kPa
1105 K, Liquid	0.0204 kPa
1108 K, Liquid	0.0178 kPa and 0.0234 kPa
1114 K, Liquid	0.024 kPa
1119 K, Liquid	0.0229 kPa and 0.0302 kPa
1123 K, Liquid	0.0282 kPa
1128 K, Liquid	0.0372 kPa
1130 K, Liquid	0.0302 kPa
1138 K, Liquid	0.0468 kPa
1140 K, Liquid	0.0427 kPa and 0.038 kPa
1148 K, Liquid	0.0513 kPa
1150 K, Liquid	0.049 kPa and 0.0617 kPa
1155 K, Liquid	0.0617 kPa
1159 K, Liquid	0.0589 kPa
1161 K, Liquid	0.0794 kPa
1168 K, Liquid	0.0708 kPa
1169 K, Liquid	0.0912 kPa
1179 K, Liquid	0.0912 kPa
